Test results published in US10660877B2 (BRISTOL-MYERS SQUIBB COMPANY, priority 2016, dated 2020).
pIC50: −log10 of the molar value. Read-outs that look alike come from different tables or passages of the source.

Tests used:
[1] = target: human TLR9 (Homo sapiens (Human), UniProt Q9NR96); experiment: TLR9 inhibition reporter assay (HEK-Blue cells, SEAP reporter, ODN2006 stimulation);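 also: compounds tested over 0.05 nM to 50 µM, 22 h incubation, inhibition taken as SEAP signal drop from agonist plus DMSO wells toward a known inhibitor control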
[2] = target: human TLR8 (Homo sapiens (Human), UniProt Q9NR97); experiment: TLR8 inhibition reporter assay (HEK-Blue cells, SEAP reporter, R848 stimulation);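 also: compounds tested from 0.05 nM to 50 µM, 22 h at 37 °C, SEAP measured with HEK-Blue Detection, inhibition relative to agonist plus DMSO versus a known inhibitor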
[3] = target: human TLR7 (Homo sapiens (Human), UniProt Q9NYK1); experiment: TLR7 inhibition reporter assay (HEK-Blue cells, SEAP reporter, gardiquimod stimulation); format: cell-based
[4] = read-out: TLR9 IC50, HEK-Blue cells overexpressing human TLR9, ODN2006 5 nM
[5] = read-out: TLR8 IC50, HEK-Blue cells overexpressing human TLR8, R848 15.9 μM
[6] = HEK-Blue cells overexpressing human TLR7, gardiquimod 7.5 μM
[7] = read-out: TLR8 IC50, HEK-Blue cells, R848 15.9 μM
[8] = HEK-Blue cells, gardiquimod 7.5 μM
[9] = TLR9 IC50, HEK-Blue cells overexpressing human TLR9, ODN2006 5 nM
[10] = TLR8 IC50, HEK-Blue cells overexpressing human TLR8, R848 15.9 μM

Sequence of human TLR8 (Q9NR97 27-1041): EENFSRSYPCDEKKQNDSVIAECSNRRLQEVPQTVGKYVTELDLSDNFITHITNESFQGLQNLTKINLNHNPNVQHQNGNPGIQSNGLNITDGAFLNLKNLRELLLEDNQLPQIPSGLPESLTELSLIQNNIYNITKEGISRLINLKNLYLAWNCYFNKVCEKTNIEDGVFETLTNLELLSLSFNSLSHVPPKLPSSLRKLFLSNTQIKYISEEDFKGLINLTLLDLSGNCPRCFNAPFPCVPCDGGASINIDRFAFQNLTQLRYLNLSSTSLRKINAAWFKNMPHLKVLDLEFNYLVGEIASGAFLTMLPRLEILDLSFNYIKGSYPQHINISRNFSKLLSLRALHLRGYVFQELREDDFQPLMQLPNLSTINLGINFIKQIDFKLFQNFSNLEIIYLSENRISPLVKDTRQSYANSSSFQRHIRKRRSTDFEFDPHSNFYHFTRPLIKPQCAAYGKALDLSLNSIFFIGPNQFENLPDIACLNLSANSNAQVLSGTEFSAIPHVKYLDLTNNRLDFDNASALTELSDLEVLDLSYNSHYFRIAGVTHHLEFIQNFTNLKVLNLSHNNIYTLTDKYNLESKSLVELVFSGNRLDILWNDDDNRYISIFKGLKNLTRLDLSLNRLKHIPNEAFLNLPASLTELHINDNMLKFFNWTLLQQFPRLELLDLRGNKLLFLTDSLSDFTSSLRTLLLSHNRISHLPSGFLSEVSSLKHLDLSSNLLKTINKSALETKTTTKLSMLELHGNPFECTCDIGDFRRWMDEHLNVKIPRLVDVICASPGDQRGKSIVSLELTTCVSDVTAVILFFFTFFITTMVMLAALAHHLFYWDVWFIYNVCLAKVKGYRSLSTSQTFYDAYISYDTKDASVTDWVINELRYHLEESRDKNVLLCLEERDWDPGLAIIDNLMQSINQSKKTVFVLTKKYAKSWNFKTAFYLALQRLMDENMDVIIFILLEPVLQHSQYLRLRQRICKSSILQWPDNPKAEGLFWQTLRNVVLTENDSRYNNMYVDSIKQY
Sequence of human TLR7 (Q9NYK1 27-1049): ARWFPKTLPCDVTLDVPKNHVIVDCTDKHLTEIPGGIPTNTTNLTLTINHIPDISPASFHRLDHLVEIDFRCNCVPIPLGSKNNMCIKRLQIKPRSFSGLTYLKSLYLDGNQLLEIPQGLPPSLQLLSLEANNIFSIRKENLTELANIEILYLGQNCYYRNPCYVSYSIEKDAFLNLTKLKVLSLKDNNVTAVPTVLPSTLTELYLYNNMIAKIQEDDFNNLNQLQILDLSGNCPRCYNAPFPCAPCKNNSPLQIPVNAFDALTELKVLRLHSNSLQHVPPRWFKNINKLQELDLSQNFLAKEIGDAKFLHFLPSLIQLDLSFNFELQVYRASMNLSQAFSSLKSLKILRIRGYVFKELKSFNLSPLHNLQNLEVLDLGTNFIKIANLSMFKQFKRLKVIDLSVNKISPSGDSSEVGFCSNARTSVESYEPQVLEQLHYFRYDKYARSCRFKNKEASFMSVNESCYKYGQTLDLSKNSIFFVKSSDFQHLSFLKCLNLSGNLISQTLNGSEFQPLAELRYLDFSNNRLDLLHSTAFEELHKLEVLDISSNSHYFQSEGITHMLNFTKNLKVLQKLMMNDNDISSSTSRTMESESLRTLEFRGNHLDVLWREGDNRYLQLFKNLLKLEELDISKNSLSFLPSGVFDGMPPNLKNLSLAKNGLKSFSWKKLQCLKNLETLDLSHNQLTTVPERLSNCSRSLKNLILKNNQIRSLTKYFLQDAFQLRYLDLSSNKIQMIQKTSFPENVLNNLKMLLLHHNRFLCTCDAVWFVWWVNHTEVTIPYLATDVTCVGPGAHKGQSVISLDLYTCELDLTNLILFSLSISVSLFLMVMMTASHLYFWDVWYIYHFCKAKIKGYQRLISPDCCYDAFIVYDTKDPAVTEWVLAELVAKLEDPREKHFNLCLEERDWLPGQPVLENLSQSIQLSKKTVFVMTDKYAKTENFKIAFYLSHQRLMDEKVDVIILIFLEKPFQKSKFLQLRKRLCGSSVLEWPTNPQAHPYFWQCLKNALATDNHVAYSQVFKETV
Sequence of human TLR9 (Q9NR96 26-1032): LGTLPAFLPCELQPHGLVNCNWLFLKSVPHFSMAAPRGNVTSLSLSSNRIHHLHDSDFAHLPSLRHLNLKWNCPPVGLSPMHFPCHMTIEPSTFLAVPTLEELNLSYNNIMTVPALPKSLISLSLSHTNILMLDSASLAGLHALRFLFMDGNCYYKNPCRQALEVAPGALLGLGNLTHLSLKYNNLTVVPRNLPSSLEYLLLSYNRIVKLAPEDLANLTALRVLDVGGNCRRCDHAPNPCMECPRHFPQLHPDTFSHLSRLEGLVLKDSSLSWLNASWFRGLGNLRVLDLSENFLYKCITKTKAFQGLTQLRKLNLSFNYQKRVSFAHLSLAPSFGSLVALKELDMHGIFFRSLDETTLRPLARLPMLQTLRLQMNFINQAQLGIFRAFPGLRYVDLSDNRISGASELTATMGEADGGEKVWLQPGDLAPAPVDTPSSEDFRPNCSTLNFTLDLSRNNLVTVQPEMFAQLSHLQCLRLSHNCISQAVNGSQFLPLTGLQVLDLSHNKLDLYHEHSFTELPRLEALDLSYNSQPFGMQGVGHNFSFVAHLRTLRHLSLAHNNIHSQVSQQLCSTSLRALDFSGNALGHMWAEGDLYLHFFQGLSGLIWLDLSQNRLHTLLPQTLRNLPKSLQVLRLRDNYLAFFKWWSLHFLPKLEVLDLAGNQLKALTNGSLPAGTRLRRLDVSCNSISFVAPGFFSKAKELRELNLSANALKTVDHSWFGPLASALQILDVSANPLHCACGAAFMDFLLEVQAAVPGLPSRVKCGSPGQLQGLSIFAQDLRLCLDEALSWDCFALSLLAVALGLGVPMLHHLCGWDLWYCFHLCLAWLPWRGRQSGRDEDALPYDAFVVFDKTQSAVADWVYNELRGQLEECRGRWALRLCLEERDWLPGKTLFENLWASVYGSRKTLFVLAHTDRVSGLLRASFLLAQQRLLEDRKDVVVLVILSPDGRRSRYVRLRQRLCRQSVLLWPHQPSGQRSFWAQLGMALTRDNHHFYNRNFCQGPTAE

pIC50 [1, 4] | pIC50 [2, 5] | pIC50 [3, 6] | SMILES | also measured
4.79 | 6.89 | 7.73 | Cc1cc(-c2[nH]c3ccc(C4CCN(C(=O)Cn5ccc(C6CC6)n5)CC4)cc3c2C(C)C)cc(C)n1 [Example 162, 2-(3-cyclopropyl-1H-pyrazol-1-yl)-1-(4-(2-(2,6-dimethylpyridin-4-yl)-3-isopropyl-1H-indol-5-yl)piperidin-1-yl)ethan-1-one] | –
< 4.30 | 7.34 | 7.37 | CC(=O)N1CCC(c2ccc3[nH]c(-c4cc(C)ncc4C)c(C(C)C)c3c2)CC1 [Example 584, 1-(4-(2-(2,5-dimethylpyridin-4-yl)-3-isopropyl-1H-indol-5-yl)piperidin-1-yl)ethan-1-one] | –
5.74 | 7.21 | 7.95 | Cc1cc(-c2[nH]c3ccc(C4CCN(C(=O)CN(C)[C@@H]5CCOC5)CC4)cc3c2C(C)C)cc(C)n1 [Example 402, (R)-1-(4-(2-(2,6-dimethylpyridin-4-yl)-3-isopropyl-1H-indol-5-yl)piperidin-1-yl)-2-(methyl(tetrahydrofuran-3-yl)amino) ethan-1-one] | –
6.84 | 8.60 | 8.43 | Cc1cc(-c2[nH]c3ccc(C4CCN(Cc5c[nH]cn5)CC4)cc3c2C(C)C)cc(C)n1 [Example 425, 5-(1-((1H-imidazol-4-yl)methyl)piperidin-4-yl)-2-(2,6-dimethylpyridin-4-yl)-3-isopropyl-1H-indole] | –
6.16 | 7.77 | 8.22 | Cc1cc(-c2[nH]c3ccc(C4CCN(CC(=O)N(C)C5CCOC5)CC4)cc3c2C(C)C)cc(C)n1 (centres unmarked) [Example 289, 2-(4-(2-(2,6-dimethylpyridin-4-yl)-3-isopropyl-1H-indol-5-yl)piperidin-1-yl)-N-methyl-N-(tetrahydrofuran-3-yl)acetamide] | –
– | – | – | Cc1cc(-c2[nH]c3ccc(C4CCN(C(C)CF)CC4)cc3c2C(C)C)ccn1 (centres unmarked) [Example 864, 5-(1-(1-fluoropropan-2-yl)piperidin-4-yl)-3-isopropyl-2-(2-methylpyridin-4-yl)-1H-indole] | pIC50 ([1]; read-out: TLR9 IC50, HEK-Blue cells, ODN2006 5 nM): 6.04; pIC50 [2, 7]: 7.97; pIC50 [3, 8]: 7.78
5.88 | 7.68 | 8.55 | Cc1cc(-c2[nH]c3ccc(C4CCN(C(=O)CN(C)CC#N)CC4)cc3c2C(C)C)cc(C)n1 [Example 423, 2-((2-(4-(2-(2,6-dimethylpyridin-4-yl)-3-isopropyl-1H-indol-5-yl)piperidin-1-yl)-2-oxoethyl)(methyl)amino)acetonitrile] | –
– | – | – | Cc1cc(-c2[nH]c3ccc(C4CCN(C(=O)C5CCNC5)CC4)cc3c2C(C)C)cc(C)n1 (centres unmarked) [Example 186, (4-(2-(2,6-dimethylpyridin-4-yl)-3-isopropyl-1H-indol-5-yl)piperidin-1-yl)(pyrrolidin-3-yl) methanone] | pIC50 [1, 9]: 6.29; pIC50 [2, 10]: 7.65
– | 6.97 | 8.12 | Cc1cc(-c2[nH]c3ccc(C4CCN(C(=O)c5ccc(C)n(C)c5=O)CC4)cc3c2C(C)C)cc(C)n1 [Example 138, 3-(4-(2-(2,6-dimethylpyridin-4-yl)-3-isopropyl-1H-indol-5-yl)piperidine-1-carbonyl)-1,6-dimethylpyridin-2(1H)-one] | –
– | – | 8.05 | COCCN(C)C(=O)CN1CCC(c2ccc3[nH]c(-c4cc(C)nc(C)c4)c(C(C)C)c3c2)CC1 [Example 254, 2-(4-(2-(2,6-dimethylpyridin-4-yl)-3-isopropyl-1H-indol-5-yl)piperidin-1-yl)-N-(2-methoxyethyl)-N-methylacetamide] | pIC50 [2, 10]: 7.75
4.32 | 7.04 | – | Cc1cc(-c2[nH]c3ccc(C4CCN(C(=O)C5(C)COC5)CC4)cc3c2C(C)C)cc(C)n1 [Example 207, (4-(2-(2,6-dimethylpyridin-4-yl)-3-isopropyl-1H-indol-5-yl)piperidin-1-yl)(3-methyloxetan-3-yl)methanone] | –
4.40 | 6.49 | – | Cc1cc(-c2[nH]c3ccc(C4CCN(C(=O)C(C)C)CC4)cc3c2C(C)C)cc(C)n1 [Example 202, 1-(4-(2-(2,6-dimethylpyridin-4-yl)-3-isopropyl-1H-indol-5-yl)piperidin-1-yl)-2-methylpropan-1-one] | –
– | – | – | Cc1cc(-c2[nH]c3ccc(C4CCN(CC(=O)N(C)C5CCOCC5)CC4)cc3c2C(C)C)cc(C)n1 [Example 287, 2-(4-(2-(2,6-dimethylpyridin-4-yl)-3-isopropyl-1H-indol-5-yl)piperidin-1-yl)-N-methyl-N-(tetrahydro-2H-pyran-4-yl)acetamide] | pIC50 [1, 9]: 6.48; pIC50 [2, 10]: 7.66
6.20 | 7.68 | – | Cc1cc(-c2[nH]c3ccc(C4CCN(C(=O)CN5CCC(C)CC5)CC4)cc3c2C(C)C)cc(C)n1 [Example 376, 1-(4-(2-(2,6-dimethylpyridin-4-yl)-3-isopropyl-1H-indol-5-yl)piperidin-1-yl)-2-(4-methylpiperidin-1-yl)ethan-1-one] | –
4.60 | 6.76 | – | Cc1cc(-c2[nH]c3ccc(C4CCN(C(=O)CCn5ccc(C)n5)CC4)cc3c2C(C)C)cc(C)n1 [Example 143, 1-(4-(2-(2,6-dimethylpyridin-4-yl)-3-isopropyl-1H-indol-5-yl)piperidin-1-yl)-3-(3-methyl-1H-pyrazol-1-yl)propan-1-one] | –
< 4.30 | 6.97 | – | Cc1cc(-c2[nH]c3ccc(C4CCN(C(=O)C5CC(=O)N(C)C5)CC4)cc3c2C(C)C)ccn1 (centres unmarked) [Example 618, 4-(4-(3-isopropyl-2-(2-methylpyridin-4-yl)-1H-indol-5-yl)piperidine-1-carbonyl)-1-methylpyrrolidin-2-one] | –
– | – | – | Cc1cc(-c2[nH]c3cc(F)c(C4CCN(C5COC5)CC4)cc3c2C(C)C)cc(C)n1 [Example 834, 2-(2,6-dimethylpyridin-4-yl)-6-fluoro-3-isopropyl-5-(1-(oxetan-3-yl)piperidin-4-yl)-1H-indole] | pIC50 [2, 7]: 7.62; pIC50 [3, 8]: 8.36
6.64 | 7.83 | – | Cc1cc(-c2[nH]c3ccc(C4CCN(C(=O)C[C@H]5CCCN5)CC4)cc3c2C(C)C)cc(C)n1 [Example 193, (R)-1-(4-(2-(2,6-dimethylpyridin-4-yl)-3-isopropyl-1H-indol-5-yl)piperidin-1-yl)-2-(pyrrolidin-2-yl)ethan-1-one] | –
– | 7.10 | 8.23 | Cc1cc(-c2[nH]c3ccc(C4CCN(C(=O)c5cccnc5)CC4)cc3c2C(C)C)cc(C)n1 [Example 113, (4-(2-(2,6-dimethylpyridin-4-yl)-3-isopropyl-1H-indol-5-yl)piperidin-1-yl)(pyridin-3-yl)methanone] | –
< 4.30 | 7.10 | – | COCCC(=O)N1CCC(c2ccc3[nH]c(-c4cc(C)nc(C)c4)c(C(C)C)c3c2)CC1 [Example 118, 1-(4-(2-(2,6-dimethylpyridin-4-yl)-3-isopropyl-1H-indol-5-yl)piperidin-1-yl)-3-methoxypropan-1-one] | –
– | – | – | Cc1cc(-c2[nH]c3ccc(C4CCN(c5cccnc5)CC4)cc3c2C(C)C)ccn1 [Example 847, 3-isopropyl-2-(2-methylpyridin-4-yl)-5-(1-(pyridin-3-yl)piperidin-4-yl)-1H-indole] | pIC50 [2, 7]: 6.69; pIC50 [3, 8]: 7.21
– | 7.35 | 8.17 | Cc1cc(-c2[nH]c3ccc(C4CCN(C(=O)CC5C(=O)N(C)C(=O)N5C)CC4)cc3c2C(C)C)cc(C)n1 (centres unmarked) [Example 122, 5-(2-(4-(2-(2,6-dimethylpyridin-4-yl)-3-isopropyl-1H-indol-5-yl)piperidin-1-yl)-2-oxoethyl)-1,3-dimethylimidazolidine-2,4-dione] | –
– | – | 7.00 | Cc1nccc(-c2[nH]c3ccc(C4CCN(Cc5cnc[nH]5)CC4)cc3c2C(C)C)c1N [Example 745, 4-(5-(1-((1H-imidazol-5-yl)methyl)piperidin-4-yl)-3-isopropyl-1H-indol-2-yl)-2-methylpyridin-3-amine] | pIC50 [2, 10]: 6.89
6.81 | 8.14 | – | Cc1cc(-c2[nH]c3ccc(C4CCN(C(=O)[C@@]5(C)CCCN5)CC4)cc3c2C(C)C)cc(C)n1 [Example 192, (R)-(4-(2-(2,6-dimethylpyridin-4-yl)-3-isopropyl-1H-indol-5-yl)piperidin-1-yl)(2-methylpyrrolidin-2-yl)methanone] | –
– | 8.02 | 7.86 | Cc1cc(-c2[nH]c3ccc(C4CCN(Cc5ncn(C)n5)CC4)cc3c2C(C)C)c(F)cn1 [Example 724, 2-(5-fluoro-2-methylpyridin-4-yl)-3-isopropyl-5-(1-((1-methyl-1H-1,2,4-triazol-3-yl)methyl)piperidin-4-yl)-1H-indole] | –
– | 6.99 | 7.10 | COCCC(=O)N1CCC(c2ccc3[nH]c(-c4ccnc(C)c4)c(C(C)C)c3c2)CC1 [Example 571, 1-(4-(3-isopropyl-2-(2-methylpyridin-4-yl)-1H-indol-5-yl)piperidin-1-yl)-3-methoxypropan-1-one] | –
6.42 | – | 5.25 | CCc1c(-c2ccnc(OC(F)F)c2)[nH]c2ccc(C3CCN(C4CCN(CC(C)C)CC4)CC3)cc12 [Example 775, 2-(2-(difluoromethoxy)pyridin-4-yl)-3-ethyl-5-(1′-isobutyl-[1,4′-bipiperidin]-4-yl)-1H-indole] | –
5.33 | – | 8.36 | Cc1cc(-c2[nH]c3cc(F)c(C4CCNCC4)cc3c2C(C)C)ccn1 [Example 73, 6-fluoro-3-isopropyl-2-(2-methylpyridin-4-yl)-5-(piperidin-4-yl)-1H-indole] | –
6.84 | 4.90 | – | COC(=O)c1c(-c2cc(C)nc(C)c2)[nH]c2ccc(C3CCNCC3)cc12 [Example 495, methyl 2-(2,6-dimethylpyridin-4-yl)-5-(piperidin-4-yl)-1H-indole-3-carboxylate] | –
